Converted amounts (≈) assume the structure as drawn. One block for each molecule: values may come before it.
Key:
[1] = biological target: Sodium channel protein type 2 subunit alpha (Homo sapiens, UniProt Q99250); test: Inhibition of recombinant human Nav1.2 expressed in HEK293 cells incubated for 3 mins by FRET based membrane potential assay; format: cell-based
[2] = Ratio of free drug concentration in brain to plasma of rat; format: ADME, cell-free; details: brain and plasma
[3] = Drug concentration in plasma of monoiodoacetate-induced Sprague-Dawley rat model of osteoarthritis at 3 mg/kg, po administered for 5 days and measured after 15 mins; format: ADME, organism-based; details: time 5 day
[4] = Drug concentration in plasma of monoiodoacetate-induced Sprague-Dawley rat model of osteoarthritis at 10 mg/kg, po administered for 5 days and measured after 15 mins; format: ADME, organism-based; details: time 5 day
[5] = Drug concentration in plasma of monoiodoacetate-induced Sprague-Dawley rat model of osteoarthritis at 30 mg/kg, po administered for 5 days and measured after 15 mins; format: ADME, organism-based; details: time 5 day
[6] = Drug concentration in brain of monoiodoacetate-induced Sprague-Dawley rat model of osteoarthritis at 3 mg/kg, po administered for 5 days and measured after 15 mins; format: ADME, organism-based; details: time 5 day, read-out: Ct
[7] = Drug concentration in brain of monoiodoacetate-induced Sprague-Dawley rat model of osteoarthritis at 10 mg/kg, po administered for 5 days and measured after 15 mins; format: ADME, organism-based; details: time 5 day, read-out: Ct
[8] = Drug concentration in brain of monoiodoacetate-induced Sprague-Dawley rat model of osteoarthritis at 30 mg/kg, po administered for 5 days and measured after 15 mins; format: ADME, organism-based; details: time 5 day, read-out: Ct
[9] = Toxicity in rat assessed as phospholipidosis measured after 5 days; details: 120 h, time 5 day
[10] = Toxicity in rat assessed as phospholipidosis measured after 10 days; details: 240 h, time 10 day
[11] = biological target: Voltage-gated inwardly rectifying potassium channel KCNH2 (Homo sapiens, UniProt Q12809);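 further: hERG channel blockade measured by electrophysiology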
Chain of Voltage-gated inwardly rectifying potassium channel KCNH2 (Q12809 whole entry): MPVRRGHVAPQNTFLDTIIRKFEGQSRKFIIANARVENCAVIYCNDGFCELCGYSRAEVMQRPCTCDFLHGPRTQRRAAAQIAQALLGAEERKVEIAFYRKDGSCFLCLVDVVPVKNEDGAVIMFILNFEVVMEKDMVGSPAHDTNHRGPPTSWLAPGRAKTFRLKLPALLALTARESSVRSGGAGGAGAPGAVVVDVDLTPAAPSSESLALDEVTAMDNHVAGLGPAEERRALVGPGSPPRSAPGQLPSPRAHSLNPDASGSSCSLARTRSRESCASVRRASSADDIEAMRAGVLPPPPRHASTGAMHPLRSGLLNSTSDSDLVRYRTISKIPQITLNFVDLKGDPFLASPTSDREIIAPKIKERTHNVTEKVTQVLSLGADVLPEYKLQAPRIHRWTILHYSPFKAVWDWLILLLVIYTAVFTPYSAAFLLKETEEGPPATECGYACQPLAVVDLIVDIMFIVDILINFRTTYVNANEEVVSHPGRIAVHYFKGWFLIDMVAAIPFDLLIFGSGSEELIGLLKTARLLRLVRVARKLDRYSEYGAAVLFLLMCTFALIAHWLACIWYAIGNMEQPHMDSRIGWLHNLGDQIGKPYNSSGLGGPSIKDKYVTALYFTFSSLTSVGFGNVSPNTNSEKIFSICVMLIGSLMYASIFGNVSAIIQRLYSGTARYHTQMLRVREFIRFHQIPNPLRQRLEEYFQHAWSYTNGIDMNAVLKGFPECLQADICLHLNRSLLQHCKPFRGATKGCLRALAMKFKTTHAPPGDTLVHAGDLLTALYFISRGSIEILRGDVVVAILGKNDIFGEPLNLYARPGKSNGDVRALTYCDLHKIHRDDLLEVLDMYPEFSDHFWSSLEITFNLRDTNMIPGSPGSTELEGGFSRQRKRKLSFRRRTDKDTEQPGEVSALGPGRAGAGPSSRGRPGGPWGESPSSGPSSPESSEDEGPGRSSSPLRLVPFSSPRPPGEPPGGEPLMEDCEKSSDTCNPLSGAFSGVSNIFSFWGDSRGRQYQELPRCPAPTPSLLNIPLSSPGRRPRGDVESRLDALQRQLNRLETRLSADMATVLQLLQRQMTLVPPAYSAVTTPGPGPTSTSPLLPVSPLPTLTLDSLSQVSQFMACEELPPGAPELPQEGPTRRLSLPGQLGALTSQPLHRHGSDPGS

[12] = rat, in vivo, po
in vivo [13] = details: Sprague-Dawley, rat, po
in vivo [14] = details: Sprague-Dawley, rat, po; remark: listed apart in the source
physchem [15] = details: octanol/water
physchem [16] = details: phosphate buffer
in vitro [17] = details: PAMPA
Rattus norvegicus [18] = species: Rattus norvegicus; test: animal or person; details: Sprague-Dawley
Rattus norvegicus [19] = test: Antinociceptive activity in monoiodoacetate-induced Sprague-Dawley rat model of osteoarthritis at 3 mg/kg, po administered for 5 days and measured after 180 mins by grip force testing relative to control; format: functional; details: time 5 day
Rattus norvegicus [20] = test: Antinociceptive activity in monoiodoacetate-induced Sprague-Dawley rat model of osteoarthritis at 10 mg/kg, po administered for 5 days and measured after 180 mins by grip force testing relative to control; format: functional; details: time 5 day
Rattus norvegicus [21] = test: Antinociceptive activity in monoiodoacetate-induced Sprague-Dawley rat model of osteoarthritis at 30 mg/kg, po administered for 5 days and measured after 180 mins by grip force testing relative to control; format: functional; details: time 5 day
[22] = Cardiotoxicity in conscious dog CV model assessed as effect on mean arterial pressure upto […] microg/ml […]; format: toxicity, Canis lupus familiaris; details: dose < 5.5 µg/ml
[23] = Cardiotoxicity in conscious dog CV model assessed as effect on heart rate upto […] microg/ml by ECG analysis; format: toxicity, Canis lupus familiaris; details: dose < 5.5 µg/ml
[24] = Cardiotoxicity in conscious dog CV model assessed as effect on QT interval upto 5.5 microg/ml by ECG analysis; format: toxicity, Canis lupus familiaris; details: dose < 5.5 µg/ml
Rattus norvegicus [25] = species: Rattus norvegicus; test: animal or person; details: Sprague-Dawley; remark: listed apart in the source
Rattus norvegicus [26] = species: Rattus norvegicus; test: animal or person; details: Sprague-Dawley; remark: listed apart in the source
[27] = biological target: Sodium channel protein type 10 subunit alpha (Homo sapiens, UniProt Q9Y5Y9); test: Inhibition of human Nav1.8 by FRET based membrane potential assay
Rattus norvegicus [28] = test: Antiallodynic activity in Sprague-Dawley rat model of L5/L6 spinal nerve ligation-induced neuropathic pain assessed as maximal possible effect at 3 mg/kg, ip; format: functional
Rattus norvegicus [29] = test: Antiallodynic activity in Sprague-Dawley rat model of L5/L6 spinal nerve ligation-induced neuropathic pain assessed as maximal possible effect at 10 mg/kg, ip; format: functional
Rattus norvegicus [30] = test: Antiallodynic activity in Sprague-Dawley rat model of L5/L6 spinal nerve ligation-induced neuropathic pain assessed as maximal possible effect at 30 mg/kg, ip; format: functional
[31] = Drug concentration in plasma of Sprague-Dawley rat model of L5/L6 spinal nerve ligation-induced neuropathic pain at 3 mg/kg, ip by LC/MS analysis; format: ADME, organism-based; details: in vivo
[32] = Drug concentration in plasma of Sprague-Dawley rat model of L5/L6 spinal nerve ligation-induced neuropathic pain at 10 mg/kg, ip by LC/MS analysis; format: ADME, organism-based; details: in vivo
[33] = Drug concentration in plasma of Sprague-Dawley rat model of L5/L6 spinal nerve ligation-induced neuropathic pain at 30 mg/kg, ip by LC/MS analysis; format: ADME, organism-based; details: in vivo
[34] = biological target: Sodium channel protein type 9 subunit alpha (Homo sapiens, UniProt Q15858)
Chain of Sodium channel protein type 9 subunit alpha (Q15858 whole entry, looked up): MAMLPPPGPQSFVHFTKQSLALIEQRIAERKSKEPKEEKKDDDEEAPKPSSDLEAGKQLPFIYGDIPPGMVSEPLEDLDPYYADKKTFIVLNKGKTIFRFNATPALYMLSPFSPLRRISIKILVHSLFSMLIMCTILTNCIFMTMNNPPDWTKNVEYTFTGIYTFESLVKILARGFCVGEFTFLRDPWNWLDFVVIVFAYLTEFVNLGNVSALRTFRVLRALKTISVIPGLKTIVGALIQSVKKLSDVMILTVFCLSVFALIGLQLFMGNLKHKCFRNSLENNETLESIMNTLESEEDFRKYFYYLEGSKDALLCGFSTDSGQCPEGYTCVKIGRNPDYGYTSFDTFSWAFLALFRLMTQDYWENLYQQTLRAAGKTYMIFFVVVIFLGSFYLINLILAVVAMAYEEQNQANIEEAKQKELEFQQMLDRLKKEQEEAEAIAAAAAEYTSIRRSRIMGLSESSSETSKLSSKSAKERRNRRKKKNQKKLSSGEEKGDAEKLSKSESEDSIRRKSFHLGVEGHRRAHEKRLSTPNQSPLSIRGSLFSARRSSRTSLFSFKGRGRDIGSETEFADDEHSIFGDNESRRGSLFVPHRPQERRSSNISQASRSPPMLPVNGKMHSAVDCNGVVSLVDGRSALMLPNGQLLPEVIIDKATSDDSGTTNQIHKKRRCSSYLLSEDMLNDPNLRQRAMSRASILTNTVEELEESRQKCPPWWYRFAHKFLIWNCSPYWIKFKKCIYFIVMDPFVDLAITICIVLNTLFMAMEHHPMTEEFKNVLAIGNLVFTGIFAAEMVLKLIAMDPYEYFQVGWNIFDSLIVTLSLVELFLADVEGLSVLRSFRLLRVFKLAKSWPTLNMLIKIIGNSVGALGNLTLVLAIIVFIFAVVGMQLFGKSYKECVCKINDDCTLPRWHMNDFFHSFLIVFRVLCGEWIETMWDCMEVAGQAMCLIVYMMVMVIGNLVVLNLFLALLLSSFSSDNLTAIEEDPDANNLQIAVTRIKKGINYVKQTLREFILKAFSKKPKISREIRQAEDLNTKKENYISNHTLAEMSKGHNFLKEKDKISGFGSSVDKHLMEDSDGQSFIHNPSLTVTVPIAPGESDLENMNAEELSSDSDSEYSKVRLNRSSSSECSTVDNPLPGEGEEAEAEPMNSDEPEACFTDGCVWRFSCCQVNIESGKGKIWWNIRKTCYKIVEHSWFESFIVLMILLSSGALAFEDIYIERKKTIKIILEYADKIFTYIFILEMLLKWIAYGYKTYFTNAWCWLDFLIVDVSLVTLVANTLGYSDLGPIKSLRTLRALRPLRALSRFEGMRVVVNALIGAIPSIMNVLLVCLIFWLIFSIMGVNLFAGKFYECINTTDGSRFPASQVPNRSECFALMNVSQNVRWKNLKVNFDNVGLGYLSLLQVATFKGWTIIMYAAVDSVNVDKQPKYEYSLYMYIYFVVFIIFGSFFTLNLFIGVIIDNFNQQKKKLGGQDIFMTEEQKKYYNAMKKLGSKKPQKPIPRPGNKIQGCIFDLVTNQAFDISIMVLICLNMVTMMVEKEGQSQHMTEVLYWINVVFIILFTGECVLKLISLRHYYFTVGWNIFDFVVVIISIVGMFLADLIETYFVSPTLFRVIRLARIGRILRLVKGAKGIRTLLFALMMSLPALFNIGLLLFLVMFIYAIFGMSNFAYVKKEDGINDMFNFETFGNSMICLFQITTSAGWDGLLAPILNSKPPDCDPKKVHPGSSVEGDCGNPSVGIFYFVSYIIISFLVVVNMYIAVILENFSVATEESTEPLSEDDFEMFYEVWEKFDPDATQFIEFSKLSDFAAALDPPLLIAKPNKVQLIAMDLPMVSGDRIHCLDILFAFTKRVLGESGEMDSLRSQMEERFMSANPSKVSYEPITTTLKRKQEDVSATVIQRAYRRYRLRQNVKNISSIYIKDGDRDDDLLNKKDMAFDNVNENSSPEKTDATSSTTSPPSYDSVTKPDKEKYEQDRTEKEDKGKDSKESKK

[35] = biological target: Sodium channel protein type 5 subunit alpha (Homo sapiens, UniProt Q14524)
[36] = human, microsomes, 0.5 h, 0.5 µM
[37] = rat, microsomes, 0.5 h, 0.5 µM
in vivo [38] = details: Sprague-Dawley, rat, iv
in vitro [39] = details: dog, MDCK
MDR1 = test: in vitro; details: dog, MDCK-MDR1
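Wherever logD is given: distribution coefficient quantified using high-throughput LC-MS.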
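Wherever solubility is given: determined using a high-throughput solubility method.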

Chain of Sodium channel protein type 2 subunit alpha (Q99250 whole entry): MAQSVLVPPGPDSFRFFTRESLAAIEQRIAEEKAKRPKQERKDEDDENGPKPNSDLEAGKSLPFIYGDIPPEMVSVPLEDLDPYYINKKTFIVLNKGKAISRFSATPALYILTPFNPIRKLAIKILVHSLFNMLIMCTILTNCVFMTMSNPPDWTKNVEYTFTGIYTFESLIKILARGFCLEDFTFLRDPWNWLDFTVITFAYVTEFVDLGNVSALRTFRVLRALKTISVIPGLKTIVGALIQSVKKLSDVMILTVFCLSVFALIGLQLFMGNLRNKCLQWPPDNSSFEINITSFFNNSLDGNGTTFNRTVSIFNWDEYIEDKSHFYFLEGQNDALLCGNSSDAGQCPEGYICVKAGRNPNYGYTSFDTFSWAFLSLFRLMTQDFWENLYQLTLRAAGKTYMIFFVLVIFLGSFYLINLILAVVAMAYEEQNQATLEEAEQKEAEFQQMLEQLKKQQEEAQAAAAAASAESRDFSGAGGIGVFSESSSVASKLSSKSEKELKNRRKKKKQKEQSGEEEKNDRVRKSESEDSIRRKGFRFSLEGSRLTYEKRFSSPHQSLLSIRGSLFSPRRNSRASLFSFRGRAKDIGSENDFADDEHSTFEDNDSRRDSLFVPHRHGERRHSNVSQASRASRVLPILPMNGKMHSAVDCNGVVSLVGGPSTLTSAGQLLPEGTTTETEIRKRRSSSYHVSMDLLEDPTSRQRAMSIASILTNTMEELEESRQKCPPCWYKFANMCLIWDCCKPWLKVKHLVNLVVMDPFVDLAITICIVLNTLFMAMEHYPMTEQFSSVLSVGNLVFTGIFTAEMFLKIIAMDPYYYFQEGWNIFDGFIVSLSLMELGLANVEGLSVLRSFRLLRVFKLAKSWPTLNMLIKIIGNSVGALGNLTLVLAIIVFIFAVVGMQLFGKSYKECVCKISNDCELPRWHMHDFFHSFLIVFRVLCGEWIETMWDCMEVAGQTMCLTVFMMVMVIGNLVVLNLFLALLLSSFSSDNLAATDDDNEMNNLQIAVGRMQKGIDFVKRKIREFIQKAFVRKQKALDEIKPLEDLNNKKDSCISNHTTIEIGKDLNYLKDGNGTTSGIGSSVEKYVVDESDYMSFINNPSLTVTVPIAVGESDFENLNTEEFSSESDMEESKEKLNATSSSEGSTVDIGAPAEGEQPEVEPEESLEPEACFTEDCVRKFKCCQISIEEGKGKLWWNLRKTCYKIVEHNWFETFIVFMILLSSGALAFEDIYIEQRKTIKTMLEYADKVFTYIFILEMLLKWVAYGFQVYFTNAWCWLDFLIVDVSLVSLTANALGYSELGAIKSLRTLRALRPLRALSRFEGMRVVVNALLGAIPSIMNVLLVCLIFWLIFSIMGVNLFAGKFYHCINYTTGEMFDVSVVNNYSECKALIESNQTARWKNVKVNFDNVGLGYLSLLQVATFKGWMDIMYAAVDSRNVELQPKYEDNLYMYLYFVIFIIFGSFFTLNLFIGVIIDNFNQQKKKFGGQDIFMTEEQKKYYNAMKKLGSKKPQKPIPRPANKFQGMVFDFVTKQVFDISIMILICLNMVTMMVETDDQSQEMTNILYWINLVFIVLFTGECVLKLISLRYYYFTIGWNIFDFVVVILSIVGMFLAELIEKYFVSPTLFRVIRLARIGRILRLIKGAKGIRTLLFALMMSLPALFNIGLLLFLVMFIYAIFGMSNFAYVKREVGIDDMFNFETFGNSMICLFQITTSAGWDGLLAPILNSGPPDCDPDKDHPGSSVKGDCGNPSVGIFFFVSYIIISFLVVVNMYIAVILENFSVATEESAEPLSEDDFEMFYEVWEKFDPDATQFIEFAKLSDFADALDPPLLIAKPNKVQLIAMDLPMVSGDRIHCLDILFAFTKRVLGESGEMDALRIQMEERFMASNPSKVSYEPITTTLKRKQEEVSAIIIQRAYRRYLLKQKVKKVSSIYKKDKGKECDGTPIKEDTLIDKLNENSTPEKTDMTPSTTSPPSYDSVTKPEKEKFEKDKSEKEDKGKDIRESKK

SMILES: O=C(c1ccc2cc(Oc3ccc(C(F)F)cn3)ccc2n1)N1CCNCC1
- IC50 [1]: 12.8 µM
- Kp uu [2]: 0.14
- concentration at 120 h [3]: 1000 ng/mL
- concentration at 120 h [4]: 4170 ng/mL
- concentration at 120 h [5]: 9110 ng/mL
- concentration at 120 h [6]: 200 ng/mL
- concentration at 120 h [7]: 720 ng/mL
- concentration at 120 h [8]: 1560 ng/mL
- Activity [9]: Non-Toxic
- Activity [10]: Toxic
- IC50 [11]: 29.5 µM
- Vdss [12]: 5.42 L/kg
- half-life (in vivo [13]): 3.38 h
- bioavailability (in vivo [14]): 96%
- logD (physchem [15]): 2.4
- solubility (physchem [16]): 150 µM (≈ 57.7 µg/mL)
- Papp (in vitro [17]): 3.3 ×10⁻⁶ cm/s
- EC50 (Rattus norvegicus [18]): 0.45 µg/mL (≈ 1.17 µM)

- bioavailability (in vivo [14]): 80.4%
- solubility (physchem [16]): 29 µM (≈ 12.7 µg/mL)
- Papp (in vitro [17]): 18 ×10⁻⁶ cm/s
SMILES: CS(=O)(=O)CCNC(=O)c1ccc2cc(Oc3ccc(C(F)(F)F)cn3)ccc2n1
- Activity (Rattus norvegicus [19]): 35%
- Activity (Rattus norvegicus [20]): 68%
- Activity (Rattus norvegicus [21]): 63%
- IC50 [11]: 30 µM

SMILES: O=C(c1ccc2cc(Oc3ccc(C(F)(F)F)cn3)ccc2n1)N1CCNCC1
- IC50 [1]: 6.6 µM
- Kp uu [2]: 0.08
- concentration at 120 h [3]: 160 ng/mL
- concentration at 120 h [4]: 510 ng/mL
- concentration at 120 h [5]: 1060 ng/mL
- Activity [22]: Non-Toxic
- Activity [23]: Non-Toxic
- Activity [24]: Non-Toxic
- Vdss [12]: 11.5 L/kg
- half-life (in vivo [13]): 12.8 h
- bioavailability (in vivo [14]): 98%
- logD (physchem [15]): 3.1
- solubility (physchem [16]): 200 µM (≈ 80.5 µg/mL)
- Papp (in vitro [17]): 4.7 ×10⁻⁶ cm/s
- EC50 (Rattus norvegicus [25]): 0.17 µg/mL (≈ 0.422 µM)
- EC50 (Rattus norvegicus [26]): 0.04 µg/mL (≈ 0.0994 µM)

SMILES: CN1CCN(C(=O)COc2ccc3cc(Oc4ccccn4)ccc3n2)CC1
- IC50 [27]: 1.83 µM
- IC50 [1]: 20 µM
- MPE (Rattus norvegicus [28]): 10%
- MPE (Rattus norvegicus [29]): 30%
- MPE (Rattus norvegicus [30]): 59%
- Kp uu [2]: 0.88
- Cp [31]: 110 ng/mL
- Cp [32]: 400 ng/mL
- Cp [33]: 1930 ng/mL
- IC50 [11]: 30 µM
- IC50 [34]: 3.13 µM
- IC50 [35]: 33 µM
- CLH [36]: < 33 mL/min/kg
- CLH [37]: 567 mL/min/kg
- clearance (in vivo [38]): 54 mL/min/kg
- half-life (in vivo [13]): 3.38 h
- bioavailability (in vivo [14]): 10%
- logD (physchem [15]): 2.9
- solubility (physchem [16]): 176 µM (≈ 66.6 µg/mL)
- Papp (in vitro [39]): 33.4 ×10⁻⁶ cm/s
- efflux ratio (MDR1): 3.7
